Test results as given in the supplement of paper PMC11061612.

Assays:
Assay in all cases: Bliss excess, mean over the matrix (fraction); higher = more synergy
[1] = system: CADO-ES1 (Ewing's Sarcoma)
Method in brief: (§1)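 Bliss excess equals the observed combination effect minus the expected value EA + EB − EA·EB, where EA and EB are the effects of each agent alone. Combination Emax is the second-highest inhibition within the matrix. Inhibition was scaled from CellTiter-Glo 2.0 luminescence, with 0 set by vehicle wells and 1 by blank wells, after 72 hours of two-drug dosing of cells plated in 1536-well plates.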

[2] = system: COLO-668 (Small Cell Lung Carcinoma)
Method in brief: as §1

[3] = system: EFO-21 (Ovarian Carcinoma)
Method in brief: as §1

[4] = system: G-401 (Other Solid Carcinomas)
Method in brief: as §1

[5] = system: HAL-01 (B-Lymphoblastic Leukemia)
Method in brief: as §1

[6] = system: HCC1937 (Breast Carcinoma)
Method in brief: as §1

[7] = system: KMRC-1 (Kidney Carcinoma)
Method in brief: as §1

[8] = system: KOPN-8 (B-Lymphoblastic Leukemia)
Method in brief: as §1

[9] = system: LC-1-sq (Squamous Cell Lung Carcinoma)
Method in brief: as §1

[10] = system: ME-180 (Cervical Carcinoma)
Method in brief: as §1

[11] = system: ML-2 (Acute Myeloid Leukemia)
Method in brief: as §1

[12] = system: MOLT-4 (T-Lymphoblastic Leukemia)
Method in brief: as §1

[13] = system: MV-4-11 (Acute Myeloid Leukemia)
Method in brief: as §1

[14] = system: NCI-H1355 (Lung Adenocarcinoma)
Method in brief: as §1

[15] = system: NCI-H1838 (Lung Adenocarcinoma)
Method in brief: as §1

[16] = system: NCI-H1993 (Lung Adenocarcinoma)
Method in brief: as §1

[17] = system: NCI-H650 (Lung Adenocarcinoma)
Method in brief: as §1

[18] = system: OACM5-1 (Esophageal Adenocarcinoma)
Method in brief: as §1

[19] = system: SNU-387 (Hepatocellular Carcinoma)
Method in brief: as §1

[20] = system: SW982 (Other Solid Carcinomas)
Method in brief: as §1

## Cc1c2c(nn1C)CSCc1cc(n(C)n1)CSc1cc(c3ccccc3c1)OCCCc1c(C(=O)O)n(C)c3c-2c(Cl)ccc13 [AZD5991] + C[C@@H](Nc1cc(F)cc(F)c1)c1cc(C(=O)N(C)C)cc2c(=O)cc(N3CCOCC3)oc12 [AZD8186] (first compound max 1 µM, 7x7, partner max 3 µM)
[1]
  Bliss excess: -0.0479
[2]
  Bliss excess: -0.0011
[3]
  Bliss excess: -0.0522
[4]
  Bliss excess: -0.0579
[5]
  Bliss excess: 0.015
[6]
  Bliss excess: -0.0001
[7]
  Bliss excess: -0.0264
[8]
  Bliss excess: 0.0014
[9]
  Bliss excess: 0.0352
[10]
  Bliss excess: -0.0244
[11]
  Bliss excess: -0.0218
[12]
  Bliss excess: 0.0193
[13]
  Bliss excess: 0.0375
[14]
  Bliss excess: -0.064
[15]
  Bliss excess: 0.0503
[16]
  Bliss excess: 0.0246
[17]
  Bliss excess: -0.0023
[18]
  Bliss excess: 0.0078
[19]
  Bliss excess: -0.0089
[20]
  Bliss excess: -0.0261

## Cc1c2c(nn1C)CSCc1cc(n(C)n1)CSc1cc(c3ccccc3c1)OCCCc1c(C(=O)O)n(C)c3c-2c(Cl)ccc13 [AZD5991] + C1CN(CCC1(C(=O)N[C@@H](CCO)C2=CC=C(C=C2)Cl)N)C3=NC=NC4=C3C=CN4 [Capivasertib] (first compound max 1 µM, 7x7, partner max 3 µM)
[1]
  Bliss excess: -0.029
[2]
  Bliss excess: 0.0516
[3]
  Bliss excess: -0.0406
[4]
  Bliss excess: 0.0486
[5]
  Bliss excess: 0.0298
[6]
  Bliss excess: -0.0108
[7]
  Bliss excess: -0.0076
[8]
  Bliss excess: -0.0468
[9]
  Bliss excess: -0.0015
[10]
  Bliss excess: -0.028
[11]
  Bliss excess: -0.0159
[12]
  Bliss excess: 0.0964
[13]
  Bliss excess: -0.0089
[14]
  Bliss excess: -0.0016
[15]
  Bliss excess: 0.0017
[16]
  Bliss excess: 0.0523
[17]
  Bliss excess: -0.0044
[18]
  Bliss excess: -0.0123
[19]
  Bliss excess: 0.0124
[20]
  Bliss excess: -0.0074

## NC1(C(=O)N[C@@H](CCO)c2ccc(Cl)cc2)CCN(c2ncnc3[nH]ccc23)CC1 [Capivasertib] + Cn1cnc2c(F)c(Nc3ccc(Br)cc3Cl)c(C(=O)NOCCO)cc21 [Selumetinib] (first compound max 10 µM, 7x7, partner max 10 µM)
[1]
  Bliss excess: -0.0008
[2]
  Bliss excess: -0.0088
[3]
  Bliss excess: -0.0352
[4]
  Bliss excess: 0.0695
[5]
  Bliss excess: 0.0548
[6]
  Bliss excess: -0.0079
[7]
  Bliss excess: 0.0071
[8]
  Bliss excess: 0.106
[9]
  Bliss excess: 0.0027
[10]
  Bliss excess: -0.0232
[11]
  Bliss excess: 0.0654
[12]
  Bliss excess: 0.0752
[13]
  Bliss excess: 0.0842
[14]
  Bliss excess: 0.0132
[15]
  Bliss excess: -0.0124
[16]
  Bliss excess: 0.0372
[17]
  Bliss excess: -0.0368
[18]
  Bliss excess: 0.0183
[19]
  Bliss excess: -0.0521
[20]
  Bliss excess: 0.0235

## CCN(CCO)CCCOc1ccc2c(Nc3cc(CC(=O)Nc4cccc(F)c4)[nH]n3)ncnc2c1 [AZD2811] + O=C(c1cc(Cc2n[nH]c(=O)c3ccccc23)ccc1F)N1CCN(C(=O)C2CC2)CC1 [Olaparib] (first compound max 1 µM, 7x7, partner max 10 µM)
[1]
  Bliss excess: 0.0242
[2]
  Bliss excess: -0.0032
[3]
  Bliss excess: -0.0409
[4]
  Bliss excess: 0.0174
[5]
  Bliss excess: -0.043
[6]
  Bliss excess: -0.0059
[7]
  Bliss excess: -0.015
[8]
  Bliss excess: 0.0034
[9]
  Bliss excess: 0.0434
[10]
  Bliss excess: -0.0208
[11]
  Bliss excess: -0.0595
[12]
  Bliss excess: -0.0029
[13]
  Bliss excess: -0.0339
[14]
  Bliss excess: 0.0006
[15]
  Bliss excess: -0.0348
[16]
  Bliss excess: -0.0211
[17]
  Bliss excess: -0.003
[18]
  Bliss excess: 0.0082
[19]
  Bliss excess: -0.0755
[20]
  Bliss excess: -0.0365

## CC1(C)CCC(CN2CCN(c3ccc(C(=O)NS(=O)(=O)c4ccc(NCC5CCOCC5)c([N+](=O)[O-])c4)c(Oc4cnc5[nH]ccc5c4)c3)CC2)=C(c2ccc(Cl)cc2)C1 [Venetoclax] + C=CCn1c(=O)c2cnc(Nc3ccc(N4CCN(C)CC4)cc3)nc2n1-c1cccc(C(C)(C)O)n1 [AZD1775] (first compound max 1 µM, partner max 1 µM)
[1]
  Bliss excess: -0.0626
[2]
  Bliss excess: 0.136
[3]
  Bliss excess: 0.0233
[4]
  Bliss excess: -0.0898
[5]
  Bliss excess: 0.0564
[6]
  Bliss excess: -0.0744
[7]
  Bliss excess: -0.0126
[8]
  Bliss excess: -0.0079
[9]
  Bliss excess: -0.0039
[10]
  Bliss excess: -0.0001
[11]
  Bliss excess: -0.0553
[12]
  Bliss excess: 0.117
[13]
  Bliss excess: -0.072
[14]
  Bliss excess: 0.0069
[15]
  Bliss excess: -0.0334
[16]
  Bliss excess: 0.0027
[17]
  Bliss excess: -0.0422
[18]
  Bliss excess: -0.056
[19]
  Bliss excess: -0.0041
[20]
  Bliss excess: 0.018

## NC1(C(=O)N[C@@H](CCO)c2ccc(Cl)cc2)CCN(c2ncnc3[nH]ccc23)CC1 [Capivasertib] + CCN(CCO)CCCOc1ccc2c(Nc3cc(CC(=O)Nc4cccc(F)c4)[nH]n3)ncnc2c1 [AZD2811] (first compound max 10 µM, 7x7, partner max 1 µM)
[1]
  Bliss excess: -0.0618
[2]
  Bliss excess: 0.0318
[3]
  Bliss excess: -0.0156
[4]
  Bliss excess: -0.0072
[5]
  Bliss excess: -0.0779
[6]
  Bliss excess: 0.0005
[7]
  Bliss excess: -0.0421
[8]
  Bliss excess: -0.0632
[9]
  Bliss excess: 0.0488
[10]
  Bliss excess: -0.0096
[11]
  Bliss excess: -0.0094
[12]
  Bliss excess: -0.0189
[13]
  Bliss excess: -0.0436
[14]
  Bliss excess: 0.045
[15]
  Bliss excess: -0.0356
[16]
  Bliss excess: 0.0065
[17]
  Bliss excess: -0.0281
[18]
  Bliss excess: -0.0245
[19]
  Bliss excess: -0.0504
[20]
  Bliss excess: 0.0184

## CCc1c2c(nc3ccc(O)cc13)-c1cc3c(c(=O)n1C2)COC(=O)[C@]3(O)CC [SN-38] + CN(C)CCCOc1ccc(-c2ccc3ncc4c(c3c2)n(C2CCOCC2)c(=O)n4C)cn1 [AZD0156] (first compound max 0.3 µM, 7x7, partner max 1 µM)
[1]
  Bliss excess: 0.0718
[2]
  Bliss excess: -0.0198
[3]
  Bliss excess: -0.0125
[4]
  Bliss excess: 0.0568
[5]
  Bliss excess: 0.0451
[6]
  Bliss excess: 0.0605
[7]
  Bliss excess: 0.0671
[8]
  Bliss excess: 0.0362
[9]
  Bliss excess: 0.0912
[10]
  Bliss excess: -0.0259
[11]
  Bliss excess: 0.0256
[12]
  Bliss excess: 0.069
[13]
  Bliss excess: 0.0414
[14]
  Bliss excess: -0.0107
[15]
  Bliss excess: -0.0741
[16]
  Bliss excess: -0.0008
[17]
  Bliss excess: -0.0066
[18]
  Bliss excess: -0.0642
[19]
  Bliss excess: -0.0373
[20]
  Bliss excess: -0.0208
